{
  "source": "paper PMC5562790",
  "about": "(Scientific Reports, 2017)",
  "key": {"staphopain B (SspB)": {"tested_on": "staphopain B (SspB)", "experiment": "S. aureus staphopain B (0.6 µg) (Sigma-Aldrich) in a total volume of 30 µl", "conditions": "37 °C, up to 3 h"}, "[1]": {"conditions": "published peptide, cited from earlier work", "text": "Table 2 A selection of published peptide sequences derived from LL-37 with immune-modulating actions, and examples of their biological effects. | column: Biological activity"}, "[2]": {"biological_target": "T1, S. aureus staphopain A (ScpA) (Staphylococcus aureus, UniProt P81297)", "T1 construct": "purchased Preparatis (Krakow, Poland)", "T1 sequence (P81297 215-388)": "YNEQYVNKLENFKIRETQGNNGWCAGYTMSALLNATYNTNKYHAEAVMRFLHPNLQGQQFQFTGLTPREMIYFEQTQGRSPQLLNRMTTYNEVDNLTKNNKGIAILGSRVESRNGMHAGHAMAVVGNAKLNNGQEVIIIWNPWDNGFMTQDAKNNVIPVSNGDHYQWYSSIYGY", "assay_type": "in vitro ADME", "conditions": "gel-electrophoresis (10-20% Tricine gel); MS detected cleavage of minor fragments", "protocol": "(§1) Proteolytic degradation of LL-37 and SDS-PAGE analysis (See Supplementary Methods S1).\nMatrix-assisted laser desorption ionization mass spectrometry (MALDI-MS) was used for the identification of […] generated peptides of LL-37. A MALDI matrix solution consisting of 5 mg/ml hydroxycinnamic acid in 50% acetonitrile, 0.1% (v/v) phosphoric acid[67] was mixed with the staphopain-generated peptides. The matrix solution contained two peptide standards [des-arg-bradykinin (m/z 904.468) and ACTH 18–39 (m/z 2465.199)] that were used for internal mass calibration in every analyte/matrix position. MALDI-MS and MS/MS analyses of the samples were performed on a 4700 Proteomics Analyzer MALDI-TOF/TOF™ mass spectrometer (Applied Biosystems, Framingham, MA). Database searching was carried out using Mascot (Matrix Science) with Swissprot as the database and with a peptide mass tolerance of 50 ppm and a fragment mass tolerance of 0.2 Da. […]\nlabeled LL-37) and green (S. aureus cells) seen separately, and yellow representing co-existence of bacterial cells and the TAMRA-labeled LL-37 peptide. Binding of TAMRA labeled LL-37 to the S. aureus cells were present throughout the biofilm. […]\nSupplementary Fig. S5. […] LL-37 was incubated with and without S. aureus ScpA and analyzed using SDS-PAGE (Novex®10-20% Tricine Gel) (a), and by mass spectrometry (b). […]"}, "[3]": {"biological_target": "T2, S. aureus staphopain B (SspB) (Staphylococcus aureus, UniProt P0C1S6)", "T2 construct": "purchased Sigma-Aldrich", "T2 sequence (P0C1S6 220-393)": "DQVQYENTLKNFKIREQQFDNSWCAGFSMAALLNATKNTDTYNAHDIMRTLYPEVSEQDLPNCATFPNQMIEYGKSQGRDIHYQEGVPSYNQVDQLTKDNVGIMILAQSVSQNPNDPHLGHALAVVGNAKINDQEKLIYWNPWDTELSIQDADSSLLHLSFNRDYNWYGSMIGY", "experiment": "Proteolytic degradation of LL-37 by staphopain B, SDS-PAGE and MS", "assay_type": "in vitro ADME", "conditions": "LL-37 3 μg with staphopain B 0.6 μg in 30 μl, 3 h, 37 °C; SDS-PAGE (10-20% Tricine gel), MALDI-MS", "protocol": "as §1\nMatrix-assisted laser desorption ionization mass spectrometry (MALDI-MS) was used for the identification of trypsin generated peptides of LL-37. A MALDI matrix solution consisting of 5 mg/ml hydroxycinnamic acid in 50% acetonitrile, 0.1% (v/v) phosphoric acid[67] was mixed with the staphopain-generated peptides. The matrix solution contained two peptide standards [des-arg-bradykinin (m/z 904.468) and ACTH 18–39 (m/z 2465.199)] that were used for internal mass calibration in every analyte/matrix position. […]\nLL-37 (3 µg), was incubated with S. aureus staphopain B (0.6 µg) (Sigma-Aldrich, St. Louis, MO, USA) in a total volume of 30 µl for 3 h at 37 ° C. […] The materials were subsequently analysed on Novex®10-20% Tricine Gel (Life technologies, Carlsbad, CA, USA) under reducing conditions. […]\nThe NF-κB/AP-1 reporter cell line THP1-XBlue™ -CD14, derived from the human monocytic THP-1 cell line, (InvivoGen, San Diego, CA, USA) was cultured according to the manufacturer’s protocol. […] NF-κB/AP-1 activation was assessed by using QUANTI-Blue™ assay according to the instructions supplied by the manufacturer. Secreted embryonic alkaline phosphatase (SEAP) was produced by the cell line upon stimulation and assessed by a SEAP detection reagent in cell supernatants. Absorbance at 600 nm was then detected. […]"}, "[4]": {"tested_on": "planktonic S. aureus (isolates from skin of patients with AD and ATCC 29213)", "assay_type": "cell-based, Staphylococcus aureus", "conditions": "summary over the tested S. aureus strains", "protocol": "Measurement of the bacterial susceptibility was determined by using a modified version of the CBD method (MBEC^TM Biofilm Inoculator, Innovotech, Edmonton, Canada)[59] following the manufacturers protocol. Briefly, to establish biofilms in vitro using the CBD, 150 μl bacterial solution of 10^5 CFU/ml in 1.5% tryptic soy broth (TSB) was supplemented with 0.3% glucose and aliquoted into each well of the MBEC plate and thereafter incubated for 24 h in a rotary incubator at 37 °C and 180 rpm. This allowed the biofilm to form on the pegs. The pegs with established biofilms were then washed once in sterile PBS (200 μl/well). […]\nThe MIC values measured using the CBD are equivalent to MIC values obtained using the National Committee for Clinical Laboratory Standards (NCCLS) procedure. The MIC value, representing the concentration required to inhibit growth of planktonic bacteria, was determined from bacteria that were shed from the pegs when the lid of the CBD was placed in different concentrations of LL-37. […] MBECs were determined by analyzing the bacterial viability in the biofilm after 24 h of incubation at 37 °C either by reading the turbidity at 600 nm in a 96-well plate reader (Victor[3] 1420 multilabel counter, Perkin-Elmer) or by obtaining bacterial plate counts. The recorded MIC and MBEC values represent a typical result of three independent experiments."}},
  "note": "Entries after “also recorded” stand apart in the source; their conditions may differ. Where two headings read alike, the source gives them in different places.",
  "data": [
    {"molecule": "LLGDFFRKSKEKIGKEFKRIVQRIKDFLRNLVPRTES", "values": [
      {"measurement": "cleaved bond", "setting": "staphopain B (SspB); S. aureus", "result": "E11-K12; also recorded: E16-F17; also recorded: D26-F27; also recorded: L28-R29"},
      {"measurement": "fragment found", "setting": "staphopain B (SspB); Staphylococcus aureus", "result": "LLG16, minor"}
    ]},
    {"molecule": "GDFFRKSK EKIGKEFKRI VQRIKDFLRN LVPRTES [F106, published fragment (F) derived from LL-37]", "values": [
      {"measurement": "Biological activity", "setting": "[1]; ref [29]", "result": "AM, IM^2"}
    ]},
    {"molecule": "IGKEFKRI VQRIKDFLRN L [IG-19]", "values": [
      {"measurement": "Biological activity", "setting": "[1]; ref [27], [28]", "result": "IM^1b,2,5"}
    ]},
    {"molecule": "CC[C@H](C)[C@H](NC(=O)[C@H](CCCCN)NC(=O)[C@H](CCC(=O)O)NC(=O)[C@H](CCCCN)NC(=O)[C@H](CO)NC(=O)[C@H](CCCCN)NC(=O)[C@H](CCCNC(=N)N)NC(=O)[C@H](Cc1ccccc1)NC(=O)[C@H](Cc1ccccc1)NC(=O)[C@H](CC(=O)O)NC(=O)CNC(=O)[C@H](CC(C)C)NC(=O)[C@@H](N)CC(C)C)C(=O)NCC(=O)N[C@@H](CCCCN)C(=O)N[C@@H](CCC(=O)O)C(=O)N[C@@H](Cc1ccccc1)C(=O)N[C@@H](CCCCN)C(=O)N[C@@H](CCCNC(=N)N)C(=O)N[C@H](C(=O)N[C@H](C(=O)N[C@@H](CCC(N)=O)C(=O)N[C@@H](CCCNC(=N)N)C(=O)N[C@H](C(=O)N[C@@H](CCCCN)C(=O)N[C@@H](CC(=O)O)C(=O)N[C@@H](Cc1ccccc1)C(=O)N[C@@H](CC(C)C)C(=O)N[C@@H](CCCNC(=N)N)C(=O)N[C@@H](CC(N)=O)C(=O)N[C@@H](CC(C)C)C(=O)N[C@H](C(=O)N1CCC[C@H]1C(=O)N[C@@H](CCCNC(=N)N)C(=O)N[C@H](C(=O)N[C@@H](CCC(=O)O)C(=O)N[C@@H](CO)C(=O)O)[C@@H](C)O)C(C)C)[C@@H](C)CC)C(C)C)[C@@H](C)CC", "note": "[LL-37]", "values": [
      {"measurement": "degradation by ScpA", "setting": "[2]", "result": "did not reveal any obvious major cleavage"},
      {"measurement": "degradation by SspB", "setting": "[3]", "result": "degraded into fragments of lower molecular weight"},
      {"measurement": "MIC values obtained for planktonic cells", "setting": "[4]", "result": "10 to 20", "unit": "µM"}
    ]},
    {"molecule": "LLGDFFRKSKEKIGKEFKRIVQRIKDFLRNL [LL-31]", "values": [
      {"measurement": "Biological activity", "setting": "[1]; ref [27]", "result": "IM^1b,3"}
    ]},
    {"molecule": "LLGDFFRKSKEKIGKEFKRIV", "values": [
      {"measurement": "Biological activity", "setting": "[1]; ref [24]", "result": "AM, IM^2"}
    ]},
    {"molecule": "GKEFKRI VQRIKDFLRN LVPR (GKEFKRIVQRIKDFLRNLVPR)", "values": [
      {"measurement": "Biological activity", "setting": "[1]; ref [24]", "result": "AM, IM^1c,2"}
    ]},
    {"molecule": "KSK EKIGKEFKRI VQRIKDFLRN LVPRTES [KS-30]", "values": [
      {"measurement": "Biological activity", "setting": "[1]; ref [23], [25], [26]", "result": "AM, IM^3,4"}
    ]},
    {"molecule": "RKSK EKIGKEFKRI VQRIKDFLRN L [RK-25]", "values": [
      {"measurement": "Biological activity", "setting": "[1]; ref [27]", "result": "IM^1b,3"}
    ]},
    {"molecule": "RKSK EKIGKEFKRI VQRIKDFLRN LVPRTES [F110, published fragment (F) derived from LL-37]", "values": [
      {"measurement": "Biological activity", "setting": "[1]; ref [29]", "result": "AM, IM^1c,2"}
    ]},
    {"molecule": "IGKEFKRI VQRIKDFLRN LVPRTES [IG-25]", "values": [
      {"measurement": "Biological activity", "setting": "[1]; ref [27]", "result": "IM^1b,3"}
    ]},
    {"molecule": "LLGDFFRKSKEKIGKEFKRIVQRIK [LL-25]", "values": [
      {"measurement": "Biological activity", "setting": "[1]; ref [27]", "result": "IM^1b"}
    ]},
    {"molecule": "RKSK EKIGKEFKRI VQRIKDFLRN LVPRTES [RK-31]", "values": [
      {"measurement": "Biological activity", "setting": "[1]; ref [23], [25]", "result": "AM, IM^3"}
    ]}
  ]
}
